pIC50: −log10 of the molar value.
Key:
[1] = target: T1, Proto-oncogene tyrosine-protein kinase Src (Homo sapiens, UniProt P12931); test: Binding affinity to p60 src SH2 domain.
[2] = target: Tyrosine-protein kinase ABL1 (Homo sapiens, UniProt P00519); test: Inhibition of Abl SH2 domain binding PDGF receptor
[3] = Inhibition of PLC(C) SH2 domain binding to PDGF receptor
[4] = target: T2, Tyrosine-protein phosphatase non-receptor type 11 (Homo sapiens, UniProt Q06124); test: Inhibition of Syp(N) SH2 domain block binding to PDGF receptor
T2 sequence (Q06124 whole entry): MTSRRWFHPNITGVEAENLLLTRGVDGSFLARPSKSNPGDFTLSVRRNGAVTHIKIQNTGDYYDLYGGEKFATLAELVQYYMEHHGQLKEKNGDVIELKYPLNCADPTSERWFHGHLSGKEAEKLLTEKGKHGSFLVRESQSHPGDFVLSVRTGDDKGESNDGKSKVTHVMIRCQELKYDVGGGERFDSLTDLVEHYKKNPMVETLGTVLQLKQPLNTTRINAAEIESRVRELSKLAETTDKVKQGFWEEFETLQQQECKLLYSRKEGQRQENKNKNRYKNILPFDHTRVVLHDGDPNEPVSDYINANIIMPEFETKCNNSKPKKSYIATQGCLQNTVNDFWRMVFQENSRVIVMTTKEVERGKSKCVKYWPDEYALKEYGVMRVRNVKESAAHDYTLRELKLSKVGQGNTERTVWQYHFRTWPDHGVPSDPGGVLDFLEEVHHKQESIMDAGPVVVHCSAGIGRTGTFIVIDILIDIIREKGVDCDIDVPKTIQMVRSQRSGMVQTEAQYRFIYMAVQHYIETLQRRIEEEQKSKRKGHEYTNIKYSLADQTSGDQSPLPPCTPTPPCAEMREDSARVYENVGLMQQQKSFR

[5] = target: T1, Proto-oncogene tyrosine-protein kinase Src; test: Inhibition of src SH2 domain binding to PDGF receptor
[6] = target: Growth factor receptor-bound protein 2 (Homo sapiens) (UniProt P62993); test: Inhibition of Grb2 SH2 domain binding to PDGF receptor 100 uM
[7] = target: Growth factor receptor-bound protein 2 (Homo sapiens) (UniProt P62993); test: Inhibition of Grb2 SH2 domain binding to PDGF receptor

T1 sequence (P12931 2-536 limits assumed): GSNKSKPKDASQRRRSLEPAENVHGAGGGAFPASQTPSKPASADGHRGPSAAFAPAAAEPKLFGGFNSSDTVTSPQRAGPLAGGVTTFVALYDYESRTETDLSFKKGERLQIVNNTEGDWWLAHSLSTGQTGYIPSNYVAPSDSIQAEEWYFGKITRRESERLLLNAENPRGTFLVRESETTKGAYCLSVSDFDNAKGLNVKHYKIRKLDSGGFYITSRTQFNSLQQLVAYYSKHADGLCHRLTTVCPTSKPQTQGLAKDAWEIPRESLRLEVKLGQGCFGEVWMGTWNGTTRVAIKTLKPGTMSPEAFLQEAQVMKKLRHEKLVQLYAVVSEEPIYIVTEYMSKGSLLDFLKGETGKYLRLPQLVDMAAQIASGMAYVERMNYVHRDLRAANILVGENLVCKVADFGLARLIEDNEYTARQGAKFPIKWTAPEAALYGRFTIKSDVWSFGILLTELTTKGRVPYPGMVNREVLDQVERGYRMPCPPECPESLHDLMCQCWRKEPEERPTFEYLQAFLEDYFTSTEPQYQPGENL
Tyrosine-protein kinase ABL1, sequence (P00519 whole entry, the tested form may be a part): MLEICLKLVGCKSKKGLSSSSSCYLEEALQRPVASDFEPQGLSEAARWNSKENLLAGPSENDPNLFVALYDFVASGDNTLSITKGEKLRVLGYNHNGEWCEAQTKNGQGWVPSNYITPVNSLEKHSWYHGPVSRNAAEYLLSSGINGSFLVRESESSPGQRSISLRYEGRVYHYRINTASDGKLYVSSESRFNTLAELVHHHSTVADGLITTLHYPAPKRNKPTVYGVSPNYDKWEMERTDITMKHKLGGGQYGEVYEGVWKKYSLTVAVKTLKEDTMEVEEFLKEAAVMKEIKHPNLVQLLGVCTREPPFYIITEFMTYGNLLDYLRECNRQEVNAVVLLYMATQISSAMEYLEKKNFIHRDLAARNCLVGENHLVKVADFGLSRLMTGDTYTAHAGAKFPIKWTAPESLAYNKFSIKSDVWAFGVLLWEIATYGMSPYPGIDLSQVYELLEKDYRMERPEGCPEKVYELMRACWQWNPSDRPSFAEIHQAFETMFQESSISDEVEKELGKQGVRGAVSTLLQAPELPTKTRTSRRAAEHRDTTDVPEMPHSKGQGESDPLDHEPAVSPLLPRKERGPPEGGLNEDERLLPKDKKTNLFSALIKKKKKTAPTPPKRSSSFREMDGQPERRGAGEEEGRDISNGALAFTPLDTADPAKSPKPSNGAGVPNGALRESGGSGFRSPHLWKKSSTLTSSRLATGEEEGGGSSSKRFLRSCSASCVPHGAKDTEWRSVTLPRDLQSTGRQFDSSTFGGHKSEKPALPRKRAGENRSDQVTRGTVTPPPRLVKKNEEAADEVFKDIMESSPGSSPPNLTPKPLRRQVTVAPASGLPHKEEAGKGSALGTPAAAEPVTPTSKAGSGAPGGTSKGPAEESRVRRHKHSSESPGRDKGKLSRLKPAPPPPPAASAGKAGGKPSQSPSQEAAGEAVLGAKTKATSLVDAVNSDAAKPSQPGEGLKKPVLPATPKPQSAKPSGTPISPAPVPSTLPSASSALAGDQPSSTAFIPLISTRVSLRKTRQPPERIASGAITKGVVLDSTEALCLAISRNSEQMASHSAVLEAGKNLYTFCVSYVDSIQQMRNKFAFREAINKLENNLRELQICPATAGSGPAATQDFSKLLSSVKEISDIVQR

A pIC50 [1] of 5.03 was found for `CC[C@H](C)[C@H](NC(=O)[C@H](CCC(=O)O)NC(=O)[C@H](CCC(=O)O)NC(=O)C(Cc1ccc(OP(=O)(O)O)cc1)c1ccccc1)C(=O)N[C@@H](CCC(=O)O)C(=O)O` (single isomer, unassigned; isomer 2) in this work.
A pIC50 [1] of 5.26 was found for `CC[C@H](C)[C@H](NC(=O)[C@H](CCC(=O)O)NC(=O)[C@H](CCC(=O)O)NC(=O)/C=C/c1ccc(OP(=O)(O)O)cc1)C(=O)N[C@@H](CCC(=O)O)C(=O)O` in this work.
A pIC50 [1] of 5.68 was found for `CC[C@H](C)[C@H](NC(=O)C(CCC(=O)O)NC(=O)C(CCC(=O)O)NC(=O)C(Cc1ccc(OP(=O)(O)O)cc1)c1cccc(O)c1)C(=O)N[C@@H](CCC(=O)O)C(=O)O` (single isomer, unassigned; isomer 1) in this work.
A pIC50 [2] of less than 4.00, a pIC50 [3] of less than 4.00 and a pIC50 [4] of less than 4.00 were found for `CC[C@H](C)[C@H](NC(=O)[C@H](CCC(=O)O)NC(=O)[C@H](CCC(=O)O)NC(=O)C(Cc1ccc(OP(=O)(O)O)cc1)c1ccccc1)C(=O)N[C@@H](CCC(=O)O)C(=O)O` (stereo in doubt) [listing 1 of 2 here] in this work. For the same molecule, the pIC50 [5] was 5.13 and the pIC50 [1] was 5.72.
A pIC50 [1] of 5.47 was found for `CC[C@H](C)[C@H](NC(=O)[C@H](CCC(=O)O)NC(=O)[C@H](CCC(=O)O)NC(=O)CCc1ccc(OP(=O)(O)O)cc1)C(=O)N[C@@H](CCC(=O)O)C(=O)O` in this work.
A pIC50 [1] of 5.35 was found for `CC[C@H](C)[C@H](NC(=O)[C@H](CCC(=O)O)NC(=O)[C@H](CCC(=O)O)NC(=O)C(Cc1ccc(OP(=O)(O)O)cc1)c1ccc2ccccc2c1)C(=O)N[C@@H](CCC(=O)O)C(=O)O` (single isomer, unassigned; isomer 2) in this work.
A pIC50 [2] of 4.82, a pIC50 [3] of less than 4.00 and a pIC50 [4] of less than 4.00 were found for `CC[C@H](C)[C@H](NC(=O)[C@H](CCC(=O)O)NC(=O)[C@H](CCC(=O)O)NC(=O)[C@@H](Cc1ccc(OP(=O)(O)O)cc1)NC(C)=O)C(=O)N[C@@H](CCC(=O)O)C(=O)O` in this work. The inhibition [6] was 45.2%.
A pIC50 [1] of 4.40 was found for `NC(=O)[C@H](Cc1c[nH]c2ccccc12)NC(=O)C(CCC(=O)O)NC(=O)C(Cc1ccc(OP(=O)(O)O)cc1)c1ccc2ccccc2c1` (some centres not stated) in this work.
A pIC50 [1] of 5.55 was found for `CC[C@H](C)[C@H](NC(=O)[C@H](CCC(=O)O)NC(=O)[C@H](CCC(=O)O)NC(=O)C(Cc1ccc(OP(=O)(O)O)cc1)c1ccc2ccccc2c1)C(=O)N[C@@H](CCC(=O)O)C(=O)O` (stereo in doubt) in this work.
A pIC50 [1] of 5.59 was found for `CC[C@H](C)[C@H](NC(=O)[C@H](CCC(=O)O)NC(=O)[C@H](CCC(=O)O)NC(=O)C(Cc1ccc(OP(=O)(O)O)cc1)c1cccc2ccccc12)C(=O)N[C@@H](CCC(=O)O)C(=O)O` (stereo in doubt; form 2) in this work.
A pIC50 [1] of 5.40 was found for `CC(=O)N[C@@H](Cc1ccc(OP(=O)(O)O)cc1)C(=O)NC(CCC(=O)O)C(=O)N[C@@H](Cc1c[nH]c2ccccc12)C(N)=O` (some centres not stated) in this work.
A pIC50 [1] of 5.85 was found for `CC[C@H](C)[C@H](NC(=O)[C@H](CCC(=O)O)NC(=O)[C@H](CCC(=O)O)NC(=O)C(Cc1ccc(OP(=O)(O)O)cc1)c1ccccc1O)C(=O)N[C@@H](CCC(=O)O)C(=O)O` (some centres not stated) in this work.
A pIC50 [1] of 6.46 was found for `CC[C@H](C)[C@H](NC(=O)[C@H](CCC(=O)O)NC(=O)[C@H](CCC(=O)O)NC(=O)[C@@H](CC(=O)O)Cc1ccc(OP(=O)(O)O)cc1)C(=O)N[C@@H](CCC(=O)O)C(=O)O` in this work.
A pIC50 [1] of 4.55 was found for `NC(=O)[C@H](Cc1c[nH]c2ccccc12)NC(=O)C(CCC(=O)O)NC(=O)C(Cc1ccc(OP(=O)(O)O)cc1)c1ccccc1` (some centres not stated) in this work.
A pIC50 [1] of 5.14 was found for `CC[C@H](C)[C@H](NC(=O)[C@H](CCC(=O)O)NC(=O)[C@H](CCC(=O)O)NC(=O)C(Cc1ccc(OP(=O)(O)O)cc1)c1cccc2ccccc12)C(=O)N[C@@H](CCC(=O)O)C(=O)O` (stereo in doubt; form 1) in this work.
A pIC50 [1] of 4.52 was found for `NC(=O)[C@H](Cc1c[nH]c2ccccc12)NC(=O)C(CCC(=O)O)NC(=O)/C=C/c1ccc(OP(=O)(O)O)cc1` (some centres not stated) in this work.
A pIC50 [1] of 4.67 was found for `NC(=O)[C@H](Cc1c[nH]c2ccccc12)NC(=O)C(CCC(=O)O)NC(=O)CCc1ccc(OP(=O)(O)O)cc1` (some centres not stated) in this work.
A pIC50 [1] of 4.52 was found for `Cc1cc(OP(=O)(O)O)cc(C)c1CCC(=O)NC(CCC(=O)O)C(=O)N[C@@H](Cc1c[nH]c2ccccc12)C(N)=O` (some centres not stated) in this work.
A pIC50 [1] of 4.87 was found for `C[C@H](Cc1ccc(OP(=O)(O)O)cc1)C(=O)NC(CCC(=O)O)C(=O)N[C@@H](Cc1c[nH]c2ccccc12)C(N)=O` (some centres not stated) in this work.
A pIC50 [1] of 5.48 was found for `CC[C@H](C)[C@H](NC(=O)C(CCC(=O)O)NC(=O)C(CCC(=O)O)NC(=O)C(Cc1ccc(OP(=O)(O)O)cc1)c1cccc(O)c1)C(=O)N[C@@H](CCC(=O)O)C(=O)O` (stereo in doubt) in this work.
A pIC50 [1] of 4.70 was found for `CC[C@H](C)[C@H](NC(=O)[C@H](CCC(=O)O)NC(=O)[C@H](CCC(=O)O)NC(=O)[C@H](C)Cc1ccc(OP(=O)(O)O)cc1)C(=O)N[C@@H](CCC(=O)O)C(=O)O` in this work.
An IC50 [7] greater than 100 µM was found for `CC[C@H](C)[C@H](NC(=O)[C@H](CCC(=O)O)NC(=O)[C@H](CCC(=O)O)NC(=O)C(Cc1ccc(OP(=O)(O)O)cc1)c1ccccc1)C(=O)N[C@@H](CCC(=O)O)C(=O)O` (stereo in doubt) [listing 2 of 2 here] in this work.
A pIC50 [1] of 5.30 was found for `CC[C@H](C)[C@H](NC(=O)[C@H](CCC(=O)O)NC(=O)[C@H](CCC(=O)O)NC(=O)/C(=C/c1ccc(OP(=O)(O)O)cc1)C(=O)O)C(=O)N[C@@H](CCC(=O)O)C(=O)O` in this work.
A pIC50 [1] of 4.52 was found for `NC(=O)[C@H](Cc1c[nH]c2ccccc12)NC(=O)C(CCC(=O)O)NC(=O)C(Cc1ccc(OP(=O)(O)O)cc1)c1cccc2ccccc12` (some centres not stated) in this work.
A pIC50 [1] of 5.35 was found for `CC[C@H](C)[C@H](NC(=O)[C@H](CCC(=O)O)NC(=O)[C@H](CCC(=O)O)NC(=O)CCc1c(C)cc(OP(=O)(O)O)cc1C)C(=O)N[C@@H](CCC(=O)O)C(=O)O` in this work.

Reference: ChEMBL document CHEMBL1129087, “Novel phosphotyrosine mimetics in the design of peptide ligands for pp60src SH2 domain” (Bioorg Med Chem Lett, 1996)
